Measured values: PMC5472428 (Drug Design, Development and Therapy, 2017)

How the values were obtained:
[1] = poor aqueous solubility and good permeability; cited from earlier work
[2] = Pharmacokinetic studies in rabbits; assay type: in vivo; details: Albino, rabbit, plasma, po, 1 mg/kg

- AUC [2]: 782 ± 93.7 ng·h/mL
- Cmax [2]: 39.2 ± 9.92 ng/mL
- Tmax [2]: 3.5 ± 0.37 h
- half-life [2]: 11 ± 2.17 h
- k el [2]: 1.72e-05 s⁻¹
SMILES: CC(C)(C)NC(=O)[C@H]1CC[C@H]2[C@@H]3CC[C@H]4NC(=O)C=C[C@]4(C)[C@H]3CC[C@]12C [FIN, (5alpha,17beta)-(1,1-dimethylethyl)-3-oxo-4-azaandrost-1-ene-17-carboxamide]
- Biopharmaceutics Classification System (BCS) class [1]: Class II
